Laboratory results taken from patent publication US6025142A, “Hydrophobic u-PAR binding site” (Boehringer Mannheim GmbH, priority 1994, dated 2000).

Columns and labels:
[1] = molecular target: T1, u-PAR (Homo sapiens, UniProt Q03405); test: protease cleavage of u-PAR monitored by ANS fluorescence; type: biochemical
T1 construct: made in house; host or cells: Chinese hamster ovary (CHO) cells, conditioned media
Method: Fluorescence measurements. […] All fluorescence measurements were made using 2 μM u-PAR and 10 μM ANS in PBS at 25° C. unless otherwise stated.

[2] = molecular target: apohemoglobin; conditions: Stryer, 1965; read-out: Kd of ANS binding to apohemoglobin; cited from earlier work
[3] = molecular target: T1, u-PAR; test: fluorescence titration of u-PAR with ANS (Scatchard); type: binding; conditions: intact u-PAR
Method: ANS titration. The stoichiometry and affinity of ANS binding to u-PAR was determined by titrating fixed concentrations of u-PAR with ANS up to a concentration of 100 μM. The observed fluorescence intensities were corrected for the dilution effect of the added ANS, the low background fluorescence of ANS in buffer and for the inner filter effect of the varying concentration of ANS. The latter was performed using the relationship
where ε386 is the molar extinction coefficient of ANS at half the path length of the fluorescence cuvette, ANSo is the total ANS concentration, and Fobs and Fcorr are the observed and corrected fluorescence intensities. The concentration of bound ANS was determined from the relationship
where Fmax is the theoretical fluorescence of a molar solution if all were bound to u-PAR. This parameter was calculated by titration of a protein concentration sufficiently high to ensure that essentially all added ANS is bound in the initial linear part of the binding curve. The data generated in this way were analyzed by the method of Scatchard.

[4] = molecular target: complement component C3b; conditions: Isenman, 1983; read-out: Kd of ANS binding to complement component C3b; cited from earlier work

T1 sequence (Q03405 23-299): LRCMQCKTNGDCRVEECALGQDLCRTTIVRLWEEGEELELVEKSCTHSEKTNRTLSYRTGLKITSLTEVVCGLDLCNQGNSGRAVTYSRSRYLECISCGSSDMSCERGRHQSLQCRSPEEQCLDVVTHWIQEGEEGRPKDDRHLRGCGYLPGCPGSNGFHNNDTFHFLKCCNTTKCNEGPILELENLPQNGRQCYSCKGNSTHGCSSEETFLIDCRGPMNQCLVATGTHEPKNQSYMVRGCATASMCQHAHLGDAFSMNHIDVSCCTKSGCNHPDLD

reduction in the ANS fluorescence after cleavage of intact u-PAR [1]	Molecule	Kd [2]	enhancement of ANS fluorescence intensity on binding to u-PAR [3]	stoichiometry of ANS binding [3]	Kd ([3]; PBS, 25° C., read-out: dissociation constant of ANS binding to u-PAR)	Kd [4]
75%	chymotrypsin					
	O=S(=O)(O)c1cccc2cccc(Nc3ccccc3)c12 [ANS, 8-anilino-1-naphthalene sulfonic acid]	55 µM	> 10 fold	1.09±0.17 moles/mole u-PAR	33.8 ± 3.2 µM	40 µM
